Measured values from ChEMBL document CHEMBL4219090, “Synthesis and biological evaluation of polyhydroxylated oxindole derivatives as potential antileishmanial agent” (Bioorg Med Chem Lett, 2018).
Calls of active or inactive are those of the source. The rule behind the calls is not given here.

Legend:
Leishmania donovani [1] = assay: Antileishmanial activity against Leishmania donovani MHOM/IN/1983/AG83 promastigotes transformed from splenic intracellular amastigotes of infected BALB/c mouse after 48 hrs by MTT assay; assay type: functional, organism-based; settings: MHOM/IN/1983/AG83, 48 h
Leishmania donovani [2] = assay: Antileishmanial activity against Leishmania donovani MHOM/IN/1983/AG83 promastigotes transformed from splenic intracellular amastigotes of infected BALB/c mouse assessed as parasite survival at 8 uM after 48 hrs by MTT assay (reference value: 100%); assay type: functional; settings: MHOM/IN/1983/AG83, 48 h
Leishmania donovani [3] = assay: Antileishmanial activity against Leishmania donovani MHOM/IN/1983/AG83 promastigotes transformed from splenic intracellular amastigotes of infected BALB/c mouse assessed as parasite survival at 32 uM after 48 hrs by MTT assay (reference value: 100%); assay type: functional; settings: MHOM/IN/1983/AG83, 48 h
Leishmania donovani [4] = assay: Antileishmanial activity against Leishmania donovani MHOM/IN/1983/AG83 promastigotes transformed from splenic intracellular amastigotes of infected BALB/c mouse assessed as parasite survival at 16 uM after 48 hrs by MTT assay (reference value: 100%); assay type: functional; settings: MHOM/IN/1983/AG83, 48 h
Leishmania donovani [5] = assay: Antileishmanial activity against Leishmania donovani MHOM/IN/1983/AG83 promastigotes transformed from splenic intracellular amastigotes of infected BALB/c mouse after 48 hrs by […]; assay type: functional, organism-based; settings: MHOM/IN/1983/AG83, 48 h
Leishmania donovani [6] = assay: (§1) Induction of apoptosis in Leishmania donovani MHOM/IN/1983/AG83 promastigotes transformed from splenic intracellular amastigotes of infected BALB/c mouse assessed as necrotic cells at 15 uM after 48 hrs by Annexin V-PE/7-AAD staining-based flow cytometric analysis (reference value: 1.51%); assay type: functional
Leishmania donovani [7] = assay: Induction of apoptosis in Leishmania donovani MHOM/IN/1983/AG83 promastigotes transformed from splenic intracellular amastigotes of infected BALB/c mouse assessed as necrotic cells at 15 uM after 24 hrs by Annexin V-PE/7-AAD staining-based flow cytometric analysis relative to control; assay type: functional
Leishmania donovani [8] = assay: Induction of apoptosis in Leishmania donovani MHOM/IN/1983/AG83 promastigotes transformed from splenic intracellular amastigotes of infected BALB/c mouse assessed as late apoptotic cells at 15 uM after 24 hrs by Annexin V-PE/7-AAD staining-based flow cytometric analysis relative to control; assay type: functional
[9] = Cytotoxicity against PHA-stimulated mouse splenocytes assessed as cell survival at 64 uM after 96 hrs by MTT assay (reference value: 100%); assay type: cell-based, Splenocyte; settings: read-out: Survival
Leishmania donovani [10] = assay: (§2) Cell cycle arrest in Leishmania donovani MHOM/IN/1983/AG83 promastigotes transformed from splenic intracellular amastigotes of infected BALB/c mouse assessed as accumulation at sub-G0/G1 phase at IC50 after 48 hrs by propidium iodide staining-based flow cytometric analysis (reference value: 2.61 +/- 0.33%); assay type: functional
Leishmania donovani [11] = assay: Induction of apoptosis in Leishmania donovani MHOM/IN/1983/AG83 promastigotes transformed from splenic intracellular amastigotes of infected BALB/c mouse assessed as early apoptotic cells at 15 uM after 24 hrs by Annexin V-PE/7-AAD staining-based flow cytometric analysis relative to control; assay type: functional
[12] = Cytotoxicity against PHA-stimulated mouse splenocytes assessed as cell survival at 16 uM after 96 hrs by MTT assay (reference value: 100%); assay type: cell-based, Splenocyte; settings: read-out: Survival
Leishmania donovani [13] = assay: as §2, with “24” for “48”; assay type: functional
[14] = Cytotoxicity against PHA-stimulated mouse splenocytes assessed as cell survival at 32 uM after 96 hrs by MTT assay (reference value: 100%); assay type: cell-based, Splenocyte; settings: read-out: Survival
Leishmania donovani [15] = assay: as §1, with “late apoptotic” for “necrotic”, “2.55 +/- 0.49%)” for “1.51%)”; assay type: functional
Leishmania donovani [16] = assay: Induction of apoptosis in Leishmania donovani MHOM/IN/1983/AG83 promastigotes transformed from splenic intracellular amastigotes of infected BALB/c mouse assessed as nuclei blebbing after 48 hrs by DAPI staining-based confocal laser scanning microscopic analysis; assay type: functional, organism-based
Leishmania donovani [17] = assay: Induction of apoptosis in Leishmania donovani MHOM/IN/1983/AG83 promastigotes transformed from splenic intracellular amastigotes of infected BALB/c mouse assessed as late apoptotic cells at 15 uM by Annexin V-PE/7-AAD staining-based flow cytometric analysis; assay type: functional, organism-based; settings: TDE = time-dependent effect
Leishmania donovani [18] = assay: Induction of apoptosis in Leishmania donovani MHOM/IN/1983/AG83 promastigotes transformed from splenic intracellular amastigotes of infected BALB/c mouse assessed as early apoptotic cells at 15 uM by Annexin V-PE/7-AAD staining-based flow cytometric analysis; assay type: functional, organism-based; settings: TDE = time-dependent effect
Leishmania donovani [19] = assay: Induction of apoptosis in Leishmania donovani MHOM/IN/1983/AG83 promastigotes transformed from splenic intracellular amastigotes of infected BALB/c mouse assessed as viable cells at 15 uM after 48 hrs by Annexin V-PE/7-AAD staining-based flow cytometric analysis (reference value: 84.97%); assay type: functional
Leishmania donovani [20] = assay: Induction of ROS generation in Leishmania donovani MHOM/IN/1983/AG83 promastigotes transformed from splenic intracellular amastigotes of infected BALB/c mouse at IC50 measured at 6 hrs by H2DCFDA probe-based flow cytometric analysis relative to control; assay type: functional
Leishmania donovani [21] = assay: Cell cycle arrest in Leishmania donovani MHOM/IN/1983/AG83 promastigotes transformed from splenic intracellular amastigotes of infected BALB/c mouse assessed as accumulation at G0/G1 phase at IC50 after 48 hrs by propidium iodide staining-based flow cytometric analysis (reference value: 81.06%); assay type: functional
Leishmania donovani [22] = assay: Induction of ROS generation in Leishmania donovani MHOM/IN/1983/AG83 promastigotes transformed from splenic intracellular amastigotes of infected BALB/c mouse at IC50 by H2DCFDA probe-based flow cytometric analysis; assay type: functional, organism-based; settings: TDE = time-dependent effect
Leishmania donovani [23] = assay: Cell cycle arrest in Leishmania donovani MHOM/IN/1983/AG83 promastigotes transformed from splenic intracellular amastigotes of infected BALB/c mouse assessed as accumulation at sub-G0/G1 phase at IC50 by propidium iodide staining-based flow cytometric analysis; assay type: functional, organism-based; settings: TDE = time-dependent effect
Leishmania donovani [24] = assay: Antileishmanial activity against Leishmania donovani MHOM/IN/1983/AG83 amastigotes infected in BALB/c mouse peritoneal macrophages at 1 uM after 48 hrs by phase contrast microscopic analysis relative to control; assay type: functional
Leishmania donovani [25] = assay: Induction of apoptosis in Leishmania donovani MHOM/IN/1983/AG83 promastigotes transformed from splenic intracellular amastigotes of infected BALB/c mouse assessed as accumulation of lipid droplets in cytoplasm after 48 hrs by Nile red staining-based confocal laser scanning microscopic analysis; assay type: functional, organism-based
Leishmania donovani [26] = assay: Induction of nitric oxide generation in Leishmania donovani MHOM/IN/1983/AG83 amastigotes infected in BALB/c mouse peritoneal macrophages at IC50 by Griess reagent based analysis relative to control; assay type: functional
Leishmania donovani [27] = assay: as §1, with “early apoptotic” for “necrotic”, “10.98 +/- 1.22%)” for “1.51%)”; assay type: functional
Leishmania donovani [28] = assay: Antileishmanial activity against Leishmania donovani MHOM/IN/1983/AG83 promastigotes transformed from splenic intracellular amastigotes of infected BALB/c mouse assessed as parasite survival at 64 uM after 48 hrs by MTT assay (reference value: 100%); assay type: functional; settings: MHOM/IN/1983/AG83, 48 h
Leishmania donovani [29] = assay: Induction of apoptosis in Leishmania donovani MHOM/IN/1983/AG83 promastigotes transformed from splenic intracellular amastigotes of infected BALB/c mouse assessed as viable cells at 15 uM after 24 hrs by Annexin V-PE/7-AAD staining-based flow cytometric analysis relative to control; assay type: functional
[30] = Cytotoxicity against PHA-stimulated mouse splenocytes assessed as cell survival at 8 uM after 96 hrs by MTT assay (reference value: 100%); assay type: cell-based, Splenocyte; settings: read-out: Survival
Leishmania donovani [31] = assay: Antileishmanial activity against Leishmania donovani MHOM/IN/1983/AG83 promastigotes transformed from splenic intracellular amastigotes of infected BALB/c mouse assessed as parasite survival at 128 uM after 48 hrs by MTT assay (reference value: 100%); assay type: functional; settings: MHOM/IN/1983/AG83, 48 h
[32] = Cytotoxicity against PHA-stimulated mouse splenocytes assessed as cell survival at 128 uM after 96 hrs by MTT assay (reference value: 100%); assay type: cell-based, Splenocyte; settings: read-out: Survival
Leishmania donovani [33] = assay: Induction of apoptosis in Leishmania donovani MHOM/IN/1983/AG83 promastigotes transformed from splenic intracellular amastigotes of infected BALB/c mouse assessed as chromatin condensation after 48 hrs by DAPI staining-based confocal laser scanning microscopic analysis; assay type: functional, organism-based

COc1ccc(CN2C(=O)C(=C(c3ccc(O)cc3)c3ccc(O)cc3)c3cc(/C=C/c4ccc(C)c(C)c4)ccc32)cc1
IC50 (Leishmania donovani [1]): 225 µM
survival at 8 µM (Leishmania donovani [2]): 97.2%
survival at 32 µM (Leishmania donovani [3]): 93.7%
survival at 16 µM (Leishmania donovani [4]): 95.5%

O=C1C(=C(c2ccc(O)cc2)c2ccc(O)cc2)c2ccccc2N1Cc1ccc(O)cc1
IC50 (Leishmania donovani [1]): 200 µM
survival at 8 µM (Leishmania donovani [2]): 98.3%
survival at 32 µM (Leishmania donovani [3]): 92%
survival at 16 µM (Leishmania donovani [4]): 96.7%

COc1ccc(CN2C(=O)C(=C(c3ccc(O)cc3)c3ccc(O)cc3)c3cc(/C=C/c4ccc(OC)c(OC)c4)ccc32)cc1
IC50 (Leishmania donovani [1]): 31 µM
survival at 8 µM (Leishmania donovani [2]): 79.2%
survival at 32 µM (Leishmania donovani [3]): 53.7%
survival at 16 µM (Leishmania donovani [4]): 70.6%

CCCCCCCCCCCCCCCCOP(=O)([O-])OCC[N+](C)(C)C [MILTEFOSINE]
IC50 (Leishmania donovani [1]): 21 µM
IC50 (Leishmania donovani [5]): 21 µM

O=C1C(=C(c2ccc(O)cc2)c2ccc(O)cc2)c2cc(/C=C/c3ccc(O)c(O)c3)ccc2N1Cc1ccc(O)cc1
Activity (Leishmania donovani [6]): 4.09%
Activity (Leishmania donovani [7]): 5.03%
Activity (Leishmania donovani [8]): 14.76%
viability at 96 h, 64 µM [9]: 87.3%
Activity (Leishmania donovani [10]): 8.86%
Activity (Leishmania donovani [11]): 35.01%
viability at 96 h, 16 µM [12]: 92.3%
Activity (Leishmania donovani [13]): 6.79 - 6.97%
IC50 (Leishmania donovani [1]): 15 µM
viability at 96 h, 32 µM [14]: 90.5%
Activity (Leishmania donovani [15]): 15.39%
Activity (Leishmania donovani [16]): Active
Activity (Leishmania donovani [17]): Tde
Activity (Leishmania donovani [18]): Tde
Activity (Leishmania donovani [19]): 38.43%
fold change (FC) (Leishmania donovani [20]): >3
Activity (Leishmania donovani [21]): 71.37%
Activity (Leishmania donovani [22]): Tde
Activity (Leishmania donovani [23]): Tde
Activity (Leishmania donovani [24]): 50%
survival at 8 µM (Leishmania donovani [2]): 96.2%
Activity (Leishmania donovani [25]): Active
fold change (FC) (Leishmania donovani [26]): 3
Activity (Leishmania donovani [27]): 42.08%
survival at 32 µM (Leishmania donovani [3]): 31.6%
survival at 64 µM (Leishmania donovani [28]): 17.9%
Activity (Leishmania donovani [29]): 45.2%
viability at 96 h, 8 µM [30]: 96.6%
survival at 128 µM (Leishmania donovani [31]): 5.42%
viability at 96 h, 128 µM [32]: 85.2%
Activity (Leishmania donovani [33]): Active
survival at 16 µM (Leishmania donovani [4]): 46.7%

COc1ccc(CN2C(=O)C(=C(c3ccc(O)cc3)c3ccc(O)cc3)c3ccccc32)cc1
IC50 (Leishmania donovani [1]): 47.2 µM
survival at 8 µM (Leishmania donovani [2]): 96.4%
survival at 32 µM (Leishmania donovani [3]): 66.1%
survival at 16 µM (Leishmania donovani [4]): 81%

COc1ccc(CN2C(=O)C(=C(c3ccc(O)cc3)c3ccc(O)cc3)c3cc(/C=C/c4ccc(F)c(F)c4)ccc32)cc1
IC50 (Leishmania donovani [1]): 220 µM
survival at 8 µM (Leishmania donovani [2]): 97.5%
survival at 32 µM (Leishmania donovani [3]): 93.2%
survival at 16 µM (Leishmania donovani [4]): 96%
